PMC7615250 (Cell reports, 2023)

Experiments:
SEB-2 = SEB-2 (Caenorhabditis elegans, UniProt P30650); format: cell-based, C. elegans; conditions: n ≥ 6
NPR-34 = assay: Aequorin-based calcium mobilization assay; format: cell-based, C. elegans; conditions: CHO/mtAEQ/Gα16 cells expressing NPR-34; aequorin luminescence; n ≥ 6

SEB-2, sequence (P30650 whole entry, looked up): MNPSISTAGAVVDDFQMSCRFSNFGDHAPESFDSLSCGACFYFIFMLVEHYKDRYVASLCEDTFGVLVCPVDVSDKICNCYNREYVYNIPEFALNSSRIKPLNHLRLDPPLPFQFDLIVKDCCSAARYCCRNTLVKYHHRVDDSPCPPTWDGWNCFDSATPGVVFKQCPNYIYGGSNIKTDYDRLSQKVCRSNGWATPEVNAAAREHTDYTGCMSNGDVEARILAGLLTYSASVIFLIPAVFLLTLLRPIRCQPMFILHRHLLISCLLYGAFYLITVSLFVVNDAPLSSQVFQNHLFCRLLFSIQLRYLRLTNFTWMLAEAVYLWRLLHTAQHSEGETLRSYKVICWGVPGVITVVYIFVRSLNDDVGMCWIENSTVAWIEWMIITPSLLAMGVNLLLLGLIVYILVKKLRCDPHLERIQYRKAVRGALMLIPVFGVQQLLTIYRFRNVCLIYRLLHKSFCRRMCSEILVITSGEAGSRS

| Substance | receptor activation (calcium response) (SEB-2) | receptor activation (calcium response) (NPR-34) |
| --- | --- | --- |
| NRQCLLNAGLSQGCDFSDLLHAQTQARKFMSFAGPamide; C4–C14 (disulfide) [NLP-73] | activate | – |
| LDCRKFSFAPACRGIML; C3–C12 (disulfide) [SNET-1] | – | activate |
